Source: paper PMC10747975, “Synthesis, Antimalarial, Antileishmanial, and Cytotoxicity Activities and Preliminary In Silico ADMET Studies of 2-(7-Chloroquinolin-4-ylamino)ethyl Benzoate Derivatives” (Pharmaceuticals, 2023)
“And” between values parts separate entries of the source, which are not always exact repeats. Equal entries are not always repeated. “Also recorded” adds a separate entry of the source. Where two headings read alike, the source gives them in different places.

How the values were obtained:
[1] = system: β-hematin formation; test: Inhibition of β-hematin formation; assay type: biochemical; conditions: n = 3, read-out: IC50: Half maximal inhibitory concentration (βHF)
Protocol: The β-hematin (β-H) formation assay was performed as described previously. In 96-well microplates, hemin chloride solution (50 μL, 4 mM) was dissolved in dimethyl sulfoxide (DMSO) (5 mg mL^−1). We dissolved the compounds in DMSO and added different concentrations (100–5 mM) to the test wells (50 μL). As controls, 50 μL of water and 50 μL of DMSO were used. Experiments were conducted in triplicate. In order to generate β-H, acetate buffer (100 μL, 0.2 M, pH 4.4) was used. After 48 h at 37 °C, the plates were centrifuged (4000 RPM for 15 min, IEC-CENTRA, MP4R) (International Equipment Company, MA, USA). After discarding the supernatants, the pellet was washed twice with DMSO (200 μL) and dissolved in NaOH (200 μL, 0.2 N). […] The outcomes are expressed as percentages of inhibition of β-H formation.

[2] = system: acidocalcisomes of Leishmania mexicana; test: Acidocalcisome function (acridine orange accumulation); assay type: cell-based; conditions: results not shown
Description: Considering this issue, we investigate another possible action of these compounds in these parasites. The acidocalcisomes are another relevant organelle characteristic of these trypanosomatids directly involved in bioenergetics and intracellular Ca^2+ regulation. These are acidic vacuoles rich in calcium and phosphates, engaged in the production and storage of pyrophosphates, and alternative energetic currency in addition to ATP, well known in trypanosomatids. For this reason, we also tested the possible effect of the compounds 4b, 4c, and 4e on acidocalcisomes, using acridine orange accumulation as a well-recognized method. This compound is released to the medium after parasite alkalization, denoting the loss of this organelle function. […] In this context, it is interesting to mention that in trypanosomatids, the disruption of intracellular Ca^2+ homeostasis drives parasite death, thus proposing that alteration of this function could be a rational therapeutic target.

[3] = system: mitochondrial electrochemical membrane potential of Leishmania mexicana promastigotes; test: Mitochondrial membrane potential of L. mexicana (rhodamine 123); assay type: cell-based; conditions: compounds 10 μM; b32 compares 4b, 4e with 4c
Protocol: The effect of different compounds on the mitochondrial membrane potential of L. mexicana promastigotes was evaluated using rhodamine 123, a fluorescent dye distributed inside mitochondria according to the electrochemical membrane potential, as reported previously. Briefly, 10^8 parasites were obtained by centrifugation at 600× g for 2 min and washed in phosphate-buffered saline solution (PBS) plus 1% glucose. The pellet was resuspended in the same buffer but in the presence of 20 µM rhodamine 123 for 45 min at 29 °C in the dark with mild agitation. Then, parasites were washed twice, resuspended in the same buffer, and transferred into a stirred cuvette. Measurements (excitation wavelength [λex], 488 nm; emission wavelength [λem], 530 nm) were made in a Hitachi 7000 spectrofluorometer at 29 °C (Hitachi High-Tech Corporation, Tokyo, Japan). FCCP (2 µM) was used as a positive control.

[4] = system: Leishmania mexicana promastigotes; test: L. mexicana promastigote growth inhibition; assay type: cell-based; conditions: growth/viability, Bel 21 strain
Protocol: The growth of L. mexicana was carried out as previously reported. L. mexicana (Bel 21 strain) promastigotes were cultured in liver infusion-tryptose (LIT) medium supplemented with 10% foetal bovine serum using continuous agitation at 29 °C, as reported previously. A growth curve was performed to evaluate the susceptibility of parasites to the different compounds at different concentrations. Parasites were counted daily using a Neubauer chamber. […] The final concentration of sterile DMSO in the parasite culture was 0.1%, not affecting the viability. […] FCCP (2 µM) was used as a positive control.

[5] = In vitro toxicity on mouse red blood cells (haemolysis); assay type: cell-based; conditions: mouse RBCs, 37 °C
Protocol: To evaluate the in vitro toxicological effects of the compounds, we measured the haemoglobin released into the supernatant fraction of lysed red blood cells (RBCs). […] To obtain 100% RBCs, mouse blood was spun down at 800 g for 10 min and washed thrice with saline solution. […] RBCs were lysed in 1% saponin solution and were used as a positive control and a PBS solution as a negative control. The percentage of haemolysis was calculated using the formula: % Haemolysis = [(AT − AN)/(AP − AN)] × 100, where AT = mean absorbance of the test compound; AN = mean absorbance of the negative control; AP = mean absorbance of the positive control.

[6] = system: Plasmodium berghei ANKA; test: Four-day suppressive test in P. berghei-infected mice; assay type: in vivo; conditions: for Survival: number of mice that survived until Day 30 post-infection/total number of mice in the group / %P: percent parasitaemia (± SEM): 25 mg/kg ip; for Sd: survival days (± SEM): P. berghei-infected BALB/c mice, 25 mg/kg ip once daily for four days; for Sd: survival days (± SEM) / %P: percent parasitaemia (± SEM): n = 6; for %P: percent parasitaemia (± SEM): fourth day post-infection
Protocol: The compounds 4c and 4e were evaluated in mice infected with P. berghei ANKA, a strain of murine malaria susceptible to CQ(DPh). The compounds 4c and 4e were assessed on the fourth day post-infection by evaluating their ability to increase mouse survival and reduce parasitaemia in vivo compared to untreated controls. The compounds 4c, 4e (25 mg/kg), or CQ (25 mg/kg) were administered intraperitoneally (ip) once daily in mice following previously reported protocols. The Institute of Immunology Bioethical Committee approved the study (AS 161019). We followed the guidelines for Laboratory Animal Research of the National Research Council (ILAR).
For the experiments, male BALB/c mice, 18–22 g, were fed a commercial pellet diet under controlled conditions approved by the Institute of Immunology’s Ethics Committee. The animals were infected with the rodent malaria ANKA strain of Plasmodium berghei; 1 × 10^6 infected erythrocytes diluted in phosphate-buffered saline (PBS; 10 mM, pH 7.4, 0.1 mL) were injected […] into mice. Microscopic examination of Giemsa-stained smears was used to monitor parasitaemia.
Plasmodium berghei-infected red blood cells were injected into the caudal vein of BALB/c mice (18–23 g) (n = 6). Within two hours of infection, the active compounds from the in vitro test began to be administered (inhibition of β-H formation). Following dissolution in DMSO (0.1 M), the compounds were diluted with 2% saline-Tween 20 solution. The compounds (dose 25 mg kg^−1) were administered ip for four days. Giemsa-stained smears were examined on the fourth day to determine the parasite load. As a positive control, CQ (25 mg kg^−1) in DMSO (0.1 M) diluted with 2% saline-Tween 20 solution was used. A control group of mice infected with P. berghei incubated with saline solution was used to determine survival times. The results are expressed as a percentage of parasitaemia, and the survival curve was constructed based on the number of days of survival after treatment with the compound over that of mice infected without treatment.

[7] = system: Leishmania mexicana promastigotes; parameters: method as in PMID 27458218; conditions: reference compound; cited from earlier work
[8] = 2% suspension of mouse red blood cells

**Q.** For `COc1ccccc1C(=O)OCCNc1ccnc2cc(Cl)ccc12` [4a, 2-(7-Chloroquinolin-4-ylamino)ethyl-2-methoxybenzoate], which IC50 [1] is on record?
**A.** Its IC50 is 4.16 ± 0.61 µM.

**Q.** With `COc1ccc(C(=O)OCCNc2ccnc3cc(Cl)ccc23)cc1` [4b, 2-(7-Chloroquinolin-4-ylamino)ethyl-4-methoxybenzoate] as the compound, how does the “Effect on acidocalcisome functionality” value [2] read?
**A.** Its value is “none of these compounds showed any effect”.

**Q.** What about the “Effect on mitochondrial electrochemical membrane potential (rhodamine 123 fluorescence release)” value [3] of the same compound?
**A.** The value was “rapid increase in the fluorescence; also recorded: significantly higher”.

**Q.** What about the IC50 [1] of the same compound?
**A.** The IC50 was 3.09 ± 0.27 µM.

**Q.** What about the IC50 ([4]; Leishmania mexicana) of the same compound?
**A.** Its IC50 is less than 10 µM.

**Q.** What about the IC50 [4] of the same compound?
**A.** The IC50 was 8.09 ± 1.47 µM.

**Q.** What does the source list for `COc1cccc(C(=O)OCCNc2ccnc3cc(Cl)ccc23)c1OC` [4c, 2-(7-Chloroquinolin-4-ylamino)ethyl-2,3-dimethoxybenzoate]?
**A.** Effect on acidocalcisome functionality [2]: none of these compounds showed any effect; Effect on mitochondrial electrochemical membrane potential (rhodamine 123 fluorescence release) [3]: rapid increase in the fluorescence; also recorded: lower; hemolysis at 45 min, 1 mM [5, 8]: 4.73 ± 0.12%; Survival: number of mice that survived until Day 30 post-infection/total number of mice in the group [6]: 0/6; Sd: survival days (± SEM) ([6]; 25 mg/kg): 16.7 ± 2.16 days and 16.71 ± 2.16 days; %P: percent parasitaemia (± SEM) [6]: 9.86 ± 1.55 %; IC50 [1]: 2.1 ± 0.48 µM; IC50 ([4]; Leishmania mexicana): < 10 µM; IC50 [4]: 8.46 ± 1.86 µM

**Q.** With `COc1ccc(C(=O)OCCNc2ccnc3cc(Cl)ccc23)c(OC)c1` [4d, 2-(7-Chloroquinolin-4-ylamino)ethyl-2,4-dimethoxybenzoate] as the compound, how does the IC50 [1] read?
**A.** Its IC50 is 8.59 ± 0.01 µM.

**Q.** For `COc1ccc(OC)c(C(=O)OCCNc2ccnc3cc(Cl)ccc23)c1` [4e, 2-(7-Chloroquinolin-4-ylamino)ethyl-2,5-dimethoxybenzoate], which “Effect on acidocalcisome functionality” value [2] is on record?
**A.** Its value is “none of these compounds showed any effect”.

**Q.** What about the “Effect on mitochondrial electrochemical membrane potential (rhodamine 123 fluorescence release)” value [3] of the same compound?
**A.** Its value is “rapid increase in the fluorescence; also recorded: significantly higher”.

**Q.** What about the hemolysis at 45 min, 1 mM [5, 8] of the same compound?
**A.** Its hemolysis at 45 min, 1 mM is 4.17 ± 0.21%.

**Q.** And the “Survival: number of mice that survived until Day 30 post-infection/total number of mice in the group” value [6]?
**A.** Its value is 0/6.

**Q.** And the “Sd: survival days (± SEM)” value ([6]; 25 mg/kg)?
**A.** The value was 14.4 ± 1.20 days and 14.43 ± 1.20 days.

**Q.** What about the “%P: percent parasitaemia (± SEM)” value [6] of the same compound?
**A.** The value was 12.05 ± 2.36 %.

**Q.** What about the IC50 [1] of the same compound?
**A.** Its IC50 is 1.81 ± 0.83 µM.

**Q.** And the IC50 ([4]; Leishmania mexicana)?
**A.** The IC50 was less than 10 µM.

**Q.** And the IC50 [4]?
**A.** The IC50 was 5.67 ± 2.15 µM.

**Q.** For `COc1cc(OC)c(C(=O)OCCNc2ccnc3cc(Cl)ccc23)cc1OC` [4f, 2-(7-Chloroquinolin-4-ylamino)ethyl-2,4,5-trimethoxybenzoate], which IC50 [1] is on record?
**A.** The IC50 was 3.29 ± 0.23 µM.

**Q.** Which IC50 [1] does the source give for `COc1cc(C(=O)OCCNc2ccnc3cc(Cl)ccc23)cc(OC)c1OC` [4g, 2-(7-Chloroquinolin-4-ylamino)ethyl-3,4,5-trimethoxybenzoate] here?
**A.** The IC50 was 2.98 ± 0.17 µM.

**Q.** With `O=C(OCCNc1ccnc2cc(Cl)ccc12)c1cccc(Cl)c1` [4h, 2-(7-Chloroquinolin-4-ylamino)ethyl-3-chlorobenzoate] as the compound, how does the IC50 [1] read?
**A.** Its IC50 is 6.85 ± 0.94 µM.

**Q.** For `O=C(OCCNc1ccnc2cc(Cl)ccc12)c1ccccc1F` [4i, 2-(7-Chloroquinolin-4-ylamino)ethyl-2-fluorobenzoate], which IC50 [1] is on record?
**A.** Its IC50 is 4.01 ± 0.09 µM.

**Q.** For `Cc1cc(C)cc(C(=O)OCCNc2ccnc3cc(Cl)ccc23)c1` [4j, 2-(7-Chloroquinolin-4-ylamino)ethyl-3,5-dimethylbenzoate], which IC50 [1] is on record?
**A.** Its IC50 is 3.16 ± 0.38 µM.

**Q.** Which IC50 [1] does the source give for `Cc1ccc([N+](=O)[O-])c(C(=O)OCCNc2ccnc3cc(Cl)ccc23)c1` [4k, 2-(7-Chloroquinolin-4-ylamino)ethyl-5-methyl-2-nitrobenzoate] here?
**A.** The IC50 was 4.27 ± 0.67 µM.

**Q.** For `CC(C)(C)c1ccc(C(=O)OCCNc2ccnc3cc(Cl)ccc23)cc1` [4l, 2-(7-Chloroquinolin-4-ylamino)ethyl-4-tert-butylbenzoate], which IC50 [1] is on record?
**A.** Its IC50 is 3.57 ± 0.22 µM.

**Q.** For `O=C(OCCNc1ccnc2cc(Cl)ccc12)c1ccc(C(F)(F)F)cc1` [4m, 2-(7-Chloroquinolin-4-ylamino)ethyl-4-(trifluoromethyl)benzoate], which IC50 [1] is on record?
**A.** Its IC50 is 3.24 ± 0.15 µM.

**Q.** Which “Sd: survival days (± SEM)” value [6] does the source give for `CCN(CC)CCCC(C)Nc1ccnc2cc(Cl)ccc12` (stereo not drawn) [CQ(DPh), chloroquine bisphosphate, reference compound] here?
**A.** Its value is 30 days.

**Q.** And the “%P: percent parasitaemia (± SEM)” value [6]?
**A.** Its value is 0.28 ± 0.15%.

**Q.** With `CCN(CC)CCCC(C)Nc1ccnc2cc(Cl)ccc12` (stereo not drawn) [CQ, chloroquine, reference compound] as the compound, how does the hemolysis at 45 min, 1 mM [5] read?
**A.** Its hemolysis at 45 min, 1 mM is 2.07 ± 0.17%.

**Q.** And the “Survival: number of mice that survived until Day 30 post-infection/total number of mice in the group” value [6]?
**A.** The value was 6/6.

**Q.** For `CC(C)=CCC/C(C)=C/CNCCNC1C2CC3CC(C2)CC1C3` (stereo not drawn) [SQ109], which IC50 [7] is on record?
**A.** Its IC50 is 0.53 ± 0.06 µM.

**Q.** For `OCCNc1ccnc2cc(Cl)ccc12` [compound 2, 2-(7-Chloroquinolin-4-ylamino)ethanol], which IC50 [1] is on record?
**A.** The IC50 was 5.06 ± 0.31 µM.
